Here are results for 25 compounds from PubChem BioAssay AID179 (DTP/NCI, 2004).

SMILES strings stand for the structures. Calls of active or inactive are those of the source.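 How the source made its calls: active means compounds giving half or more protection of infected cells from virus-caused growth loss, again on retest; inactive means the rest.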 Where only a bound is given, the exact number is not on record here.

For the assay, the system named is CEM cells HIV-1 protection, formazan growth assay. The experiment in a line: NCI AIDS Antiviral Assay. The note with it: for IC50: measured here: growth of uninfected CEM cells. In short, it runs like this: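 Human CEM cells, uninfected and HIV-1-infected, exposed to five drug concentrations; growth measured by soluble formazan assay and scored as percent protection from infection, with protecting compounds retested.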

As to `Cc1cn(C2CC([Se]c3ccccc3)C(CO)O2)c(=O)[nH]c1=O` (stereo not drawn), the EC50 (as a rule, the concentration that produces a half-maximal response) was > 200 µM and the IC50 (in general, the concentration needed to halve the response being measured) is 95.5 µM.
For `c1ccc(CNN2CN(NCc3ccccc3)CN(NCc3ccccc3)C2)cc1`, the EC50 is > 100 µM and the 50% inhibitory concentration (IC50) was found to be 70.8 µM.
For `CCCCC1(N=[N+]=[N-])C(=O)c2cccc3c2N(CCC3)C1=O` (stereo not drawn), in that order: > 200 µM and > 200 µM.
The like results for `C#CC1(O)CCC2C3CCc4cc(Oc5nc(F)nc(-c6c7ccccc7c7sc8ccccc8n67)n5)ccc4C3CC[C@@]21C` (stereo partly drawn) were, in that order, > 200 µM and 115 µM.
For `CC(=O)OC1C[C@@H](C)C2(CC(c3ccoc3)OC2=O)C2CCC(O)C3(CO3)C12CO` (stereo partly drawn), in that order: > 200 µM and > 200 µM.
Take `Cc1ccccc1C1CC(c2ccccc2)=NO1` (stereo not drawn): the EC50 was > 57.5 µM and the IC50 was > 57.5 µM.
With `N#Cc1nc(CN2C(=O)c3ccccc3C2=O)oc1N`, the EC50 was 5.89 µM and the IC50 is > 200 µM.
For `COC(=O)/C(C#N)=C(\Nc1ccccc1)N1CCCC1`, in that order: > 200 µM and 138 µM.
On to `CNC=O`, for which the EC50 is > 200 µM and the IC50 is > 200 µM.
As to `CCN1CCC(O)(/C=C/c2ccc(C(C)C)cc2)C(C(=O)/C=C/c2ccc(C(C)C)cc2)C1` (stereo not drawn), the EC50 was > 200 µM and the IC50 was determined as 1.78 µM.
As to `Cc1ccccc1N1C(=O)/C(=C/c2ccc(N(CCC#N)CCC#N)cc2)N=C1c1cc([N+](=O)[O-])ccc1Cl`, the EC50 was > 9.77 µM and the IC50 was > 9.77 µM.
On to `CC(C)(C)C1=CC(=C(c2ccc(-c3c4nc(c(-c5ccc(C(=C6C=C(C(C)(C)C)C(=O)C(C(C)(C)C)=C6)c6cc(C(C)(C)C)c(O)c(C(C)(C)C)c6)cc5)c5ccc([nH]5)c(-c5ccc(C(=C6C=C(C(C)(C)C)C(=O)C(C(C)(C)C)=C6)c6cc(C(C)(C)C)c(O)c(C(C)(C)C)c6)cc5)c5nc(c(-c6ccc(C(=C7C=C(C(C)(C)C)C(=O)C(C(C)(C)C)=C7)c7cc(C(C)(C)C)c(O)c(C(C)(C)C)c7)cc6)c6ccc3[nH]6)C=C5)C=C4)cc2)c2cc(C(C)(C)C)c(O)c(C(C)(C)C)c2)C=C(C(C)(C)C)C1=O`, for which the EC50 was > 100 µM and the IC50 is > 100 µM.
`CC(=O)OCC1OC(n2ccc(-n3cncn3)nc2=O)CC1N=[N+]=[N-]` (stereo not drawn): the EC50 was 87.1 µM and the IC50 was > 200 µM.
For `COP(=O)(OC)C(=O)c1ccccc1`, in that order: > 1150 µM and > 1150 µM.
For `CCCCCCCCCCCCCC1=NCC(C)(C)N1`, in that order: > 93.3 µM and 20.4 µM.
For the compound `CCCCCCCCCCCCSC(=S)c1c(C)[nH]n(CCCCCCCCCCCC)c1=O`, the EC50 was > 51.3 µM and the IC50 was > 51.3 µM.
Take `CCCCCCCCCCCc1c(O)c(O)cc2nc3ccc(SCCC)cc3nc12`: the EC50 was > 16.2 µM and the IC50 is 9.33 µM.
For `COc1ccc2cc(C(=O)c3ccccc3C(=O)O)ccc2c1`, the result was inactive.
As to `CCN(CC)CCn1c2cc3c(cc2c(=O)c2cccnc21)OCO3`, the EC50 is > 200 µM and the IC50 was found to be 7.94 µM.
For `CCOC(=O)NC(OCc1ccccc1)(C(=O)OC)C(F)(F)F` (stereo not drawn), in that order: > 200 µM and > 200 µM.
The like results for `FC(F)(F)c1ccc(C2=N/S(c3ccccc3)=N\C(c3ccc(C(F)(F)F)cc3)=N/S(c3ccccc3)=N\2)cc1` (stereo not drawn) were, in that order, > 50.1 µM and > 50.1 µM.
As to `C(=C\c1ccc2ccccc2c1Nc1ccccc1)/c1ccccc1`, the result was inactive.
With `CN(C)Cc1cc(/C=C/C(=O)c2ccc(Br)cc2)cc(CN(C)C)c1O`, the EC50 is > 200 µM and the IC50 came to 10.5 µM.
The like results for `COC(=O)C1=C2Nc3ccccc3[C@@]23CCN(Cc2ccccc2)C3C[C@H]1C1=CC(OC)OC1OC` (stereo partly drawn) were, in that order, > 25.7 µM and 15.1 µM.
`C=C1CC(COc2ccc3ccc(=O)oc3c2)(c2ccccc2)OC1=O` (stereo not drawn): the EC50 is > 2 µM and the IC50 amounted to 0.724 µM.
